Laboratory results taken from patent US12568967B2, “Compositions comprising pyridine carboxylate herbicides with synthetic auxin herbicides or auxin transport inhibitors” (priority 2018, dated 2026).

Columns and labels:
[1] = test system: Cirsium arvense (Canadian thistle, CIRAR); experiment: Greenhouse postemergence trial CIRAR; type: in vivo; conditions: CIRAR; for % visual injury, Obs: applied alone
[2] = test system: Veronica hederifolia (ivyleaf speedwell, VERHE); experiment: Greenhouse postemergence trial VERHE; type: in vivo; conditions: VERHE
Experimental: (§1) Seeds of the desired test plant species were planted in a 90:10% v/v (volume/volume) mixture of PRO-MIX® BX (Premier Tech Horticulture, Quakertown, PA, USA) and PROFILE® GREENS GRADE™ (Profile Products LLC, Buffalo Grove, IL, USA) planting mixture, which typically has a pH of 5.2 to 6.2 and an organic matter content of at least 50 percent, in plastic pots with a surface area of 103.2 square centimeters (cm^2). […] The plants were grown for 7-36 days (d) in a greenhouse with an approximate 14-hour (h) photo-period which was maintained at about 23° C. during the day and 22° C. during the night. Nutrients and water were added on a regular basis and supplemental lighting was provided with overhead metal halide 1000-Watt lamps as necessary. The plants were employed for testing when they reached the second or third true leaf stage.
(§2) Emulsifiable concentrates of each of each pyridine carboxylate herbicide (Compound A or Compound B) were prepared at 100 grams acid equivalent per liter (g ae/L). The emulsifiable concentrates also included a safener, cloquintocet-mexyl, at 120 grams active ingredient per liter (g ai/L), unless otherwise noted below. An aliquot of each emulsifiable concentrate was placed in a 25 mL glass vial and diluted with an aqueous mixture of 1.25% (v/v) ACTIROB® B esterified rapeseed oil (Bayer Crop Science, Research Triangle Park, NC, USA) or MSO® Concentrate with LECI-TECH® methylated soybean oil (Loveland Products, Loveland, CO, USA) to obtain concentrated stock solutions at the highest application rate for each herbicide, based upon a 12 milliliter (mL) application volume at a rate of 187 liters per hectare (L/ha). The concentrated stock solutions were further diluted with an aqueous mixture of 1.25% v/v ACTIROB® B or MSO® Concentrate with LECI-TECH® to obtain stock solutions at reduced application rates for each herbicide. Spray solutions of the herbicide combinations (Compound A or Compound B plus synthetic auxin herbicide or auxin transport inhibitor) were prepared by adding weighed amounts or aliquots of the synthetic auxin herbicide or auxin transport inhibitor to the stock solutions of Compound A or Compound B to form 12-mL spray solutions in two-way combinations.
(§3) The spray solutions were applied to the plant material with an overhead Mandel track sprayer equipped with 8002E nozzles calibrated to deliver 187 L/ha over an application area of 0.503 square meters (m^2) at a spray height of 18 inches (43 centimeters (cm)) above the average plant canopy. Control plants were sprayed in the same manner with the solvent blank. All pyridine carboxylate herbicide (component a) application rates are given as “g ae/ha” and all synthetic auxin herbicide or auxin transport inhibitor (component b) application rates are given as “g ai/ha.”
(§4) The treated plants and control plants were placed in a greenhouse as described above and watered by sub-irrigation to prevent wash-off of the test compounds. After 20-22 d, the condition of the test plants as compared with that of the control plants was determined visually and scored on a scale of 0 to 100 percent where 0 corresponds to no injury and 100 corresponds to complete kill.

[3] = test system: Anthemis arvensis (field chamomile, ANTAR); experiment: Greenhouse postemergence trial ANTAR; type: in vivo; conditions: ANTAR
[4] = test system: Matricaria inodora (false chamomile, MATIN); experiment: Greenhouse postemergence trial MATIN; type: in vivo; conditions: MATIN
[5] = test system: Polygonum convolvulus (wild buckwheat, POLCO); experiment: Greenhouse postemergence trial POLCO; type: in vivo; conditions: POLCO; for % visual injury, Obs: applied alone
[6] = test system: Matricaria chamomilla (wild chamomile, MATCH); experiment: Greenhouse postemergence trial MATCH; type: in vivo; conditions: MATCH; for % visual injury, Obs: applied alone;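 on all read-outs here: greenhouse plants sprayed at second to third true leaf stage, injury rated by eye 20-22 d later versus solvent-blank controls on 0–100 scale, 0 no injury, 100 complete kill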
[7] = test system: Kochia scoparia (kochia, KCHSC); experiment: Greenhouse postemergence trial KCHSC; type: in vivo; conditions: KCHSC; for % visual injury, Obs: applied alone
[8] = test system: Papaver rhoeas (corn poppy), herbicide-resistant (PAPRH-R); experiment: Greenhouse postemergence trial PAPRH-R; type: in vivo
[9] = test system: Veronica persica (bird's-eye speedwell, VERPE); experiment: Greenhouse postemergence trial VERPE; type: in vivo
Experimental: as §1, §2, §3, §4

[10] = test system: Lamium purpureum (purple deadnettle, LAMPU); experiment: Greenhouse postemergence trial LAMPU
Experimental: (§5) The plants were grown for 7-36 days (d) in a greenhouse with an approximate 14-hour (h) photo-period which was maintained at about 23° C. during the day and 22° C. during the night. Nutrients and water were added on a regular basis and supplemental lighting was provided with overhead metal halide 1000-Watt lamps as necessary. The plants were employed for testing when they reached the second or third true leaf stage.
(§6) The emulsifiable concentrates also included a safener, cloquintocet-mexyl, at 120 grams active ingredient per liter (g ai/L), unless otherwise noted below.
(§7) Control plants were sprayed in the same manner with the solvent blank. All pyridine carboxylate herbicide (component a) application rates are given as “g ae/ha” and all synthetic auxin herbicide or auxin transport inhibitor (component b) application rates are given as “g ai/ha.”
as §4

[11] = test system: Papaver rhoeas (corn poppy, PAPRH); experiment: Greenhouse postemergence trial PAPRH; type: in vivo; conditions: PAPRH
[12] = test system: Stellaria media (chickweed, STEME); experiment: Greenhouse postemergence trial STEME; type: in vivo; conditions: STEME
[13] = test system: Sinapis arvensis (wild mustard, SINAR); experiment: Greenhouse postemergence trial SINAR; type: in vivo; conditions: SINAR; for % visual injury, Obs: applied alone
[14] = test system: Brassica napus (winter rape, BRSNW); experiment: Greenhouse postemergence trial BRSNW; type: in vivo; conditions: BRSNW
[15] = test system: Matricaria discoidea (pineapple weed, MATMT); experiment: Greenhouse postemergence trial MATMT; type: in vivo
[16] = test system: Capsella bursa-pastoris (shepherd's purse, CAPBP); experiment: Greenhouse postemergence trial CAPBP; type: in vivo; conditions: CAPBP
Experimental: as §1, §2, §3, §4

[17] = test system: Viola arvensis (field violet, VIOAR); experiment: Greenhouse postemergence trial VIOAR; type: in vivo; conditions: VIOAR
[18] = test system: Cyanus segetum (cornflower, CENCY); experiment: Greenhouse postemergence trial CENCY; type: in vivo; conditions: CENCY
[19] = test system: Salsola kali (Russian thistle, SASKR); experiment: Greenhouse postemergence trial SASKR; type: in vivo; conditions: SASKR; for % visual injury, Obs: applied alone;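 on all read-outs here: greenhouse plants sprayed at second or third true leaf stage, injury rated by eye after 20-22 d against solvent-blank controls, 0 meaning no injury, 100 complete kill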
Experimental: as §5, §6, §7, §4

[20] = test system: Viola tricolor (wild pansy, VIOTR); experiment: Greenhouse postemergence trial VIOTR;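 further: greenhouse plants sprayed at second to third true leaf stage, injury rated visually after 20-22 d against solvent-blank sprayed controls, 0 meaning no injury and 100 complete kill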
[21] = test system: Triticum aestivum (spring wheat, TRZAS); type: in vivo; conditions: TRZAS; applied alone, 3 g/ha
[22] = test system: Hordeum vulgare (spring barley, HORVS); type: in vivo; conditions: HORVS; applied alone, 3 g/ha
[23] = test system: Chenopodium album L. (common lambsquarters, CHEAL); experiment: Greenhouse postemergence trial CHEAL; type: in vivo; conditions: CHEAL; applied alone, 3 g/ha;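 further: greenhouse plants sprayed at second to third true leaf stage, injury rated by eye after 20-22 d versus solvent-blank sprayed controls, 0 = no injury, 100 = complete kill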
Experimental: as §5, §6, §7, §4

[24] = test system: Amaranthus retroflexus (pigweed, AMARE); experiment: Greenhouse postemergence trial AMARE; type: in vivo; conditions: AMARE; applied alone, 3 g/ha;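 further: Greenhouse-grown plants sprayed at second to third true leaf stage, injury rated by eye after 20-22 d versus solvent-blank sprayed controls, 0 = no injury, 100 = complete kill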

In the case of `CC(Oc1ccc(Cl)cc1Cl)C(=O)O` (stereo not shown) [Dichlorprop], the “% visual injury, Obs” value ([1]; 560 g/ha) is reported as 75%, the “% visual injury, Obs” value ([2]; applied alone, 560 g/ha) is reported as 60% and the “% visual injury, Obs” value ([3]; applied alone, 560 g/ha) is reported as 95%. The “% visual injury, Obs” value ([4]; applied alone, 560 g/ha) was 60%, the “% visual injury, Obs” value ([5]; 560 g/ha) was 95% and the “% visual injury, Obs” value ([6]; 560 g/ha) was 50%. For the same molecule, the “% visual injury, Obs” value ([7]; 560 g/ha) was 75%, the “% visual injury, Obs” value ([8]; PAPRH-R, applied alone, 560 g/ha) was 30% and the “% visual injury, Obs” value ([9]; VERPE, applied alone, 560 g/ha) was 30%. The “% visual injury, Obs” value ([10]; LAMPU, applied alone, 560 g/ha) was 30%, the “% visual injury, Obs” value ([11]; applied alone, 560 g/ha) was 65% and the “% visual injury, Obs” value ([12]; applied alone, 560 g/ha) was 30%. For the same molecule, the “% visual injury, Obs” value ([13]; 560 g/ha) was 100%, the plant injury at 560 g/ha ([14]; Brassica napus, post-emergence, applied alone, 560 g/ha, read-out: % visual injury, Obs) was 75% and the “% visual injury, Obs” value ([15]; MATMT, applied alone, 560 g/ha) was 10%. For the same molecule, the “% visual injury, Obs” value ([16]; applied alone, 560 g/ha) was 70%, the “% visual injury, Obs” value ([17]; applied alone, 560 g/ha) was 25% and the “% visual injury, Obs” value ([18]; applied alone, 560 g/ha) was 100%. For the same molecule, the “% visual injury, Obs” value ([19]; 560 g/ha) was 70% and the “% visual injury, Obs” value ([20]; VIOTR, applied alone, 560 g/ha) was 85%.
For `COC(=O)c1nc(-c2ccc(Cl)c(OC)c2F)cc(N)c1Cl` [Halatvcifen-methyl], the “% visual injury, Obs” value [21] was 0%, the “% visual injury, Obs” value ([1]; 3 g/ha) was 10% and the “% visual injury, Obs” value [22] was 0%. For the same molecule, the “% visual injury, Obs” value [23] was 83%, the “% visual injury, Obs” value ([5]; 3 g/ha) was 20% and the “% visual injury, Obs” value ([6]; 3 g/ha) was 5%. For the same molecule, the “% visual injury, Obs” value ([7]; 3 g/ha) was 40%, the “% visual injury, Obs” value [24] was 68% and the “% visual injury, Obs” value ([13]; 3 g/ha) was 40%. For the same molecule, the “% visual injury, Obs” value ([14]; applied alone, 3 g/ha) was 15% and the “% visual injury, Obs” value ([19]; 3 g/ha) was 73%.
For `Nc1c(Cl)c(F)nc(OCC(=O)O)c1Cl` [Fluroxypyr], the pest or weed control ([1]; Cirsium arvense, post-emergence, Fluroxypyr 200 g/ha, read-out: % visual injury Obs) was 10%, the pest or weed control ([2]; Veronica hederifolia, post-emergence, Fluroxypyr 200 g/ha, read-out: % visual injury Obs) was 10% and the pest or weed control ([3]; Anthemis arvensis, post-emergence, Fluroxypyr 200 g/ha, read-out: % visual injury Obs) was 60%. For the same molecule, the pest or weed control ([4]; Tripleurospermum inodorum, post-emergence, Fluroxypyr 200 g/ha, read-out: % visual injury Obs) was 65%, the pest or weed control ([5]; Fallopia convolvulus, post-emergence, Fluroxypyr 200 g/ha, read-out: % visual injury Obs) was 50% and the pest or weed control ([6]; Matricaria chamomilla, post-emergence, Fluroxypyr 200 g/ha, read-out: % visual injury Obs) was 10%. For the same molecule, the pest or weed control ([7]; Bassia scoparia, post-emergence, Fluroxypyr 200 g/ha, read-out: % visual injury Obs) was 70%, the “PAPRH-R % visual injury Obs” value ([8]; Fluroxypyr 70 g/ha (Table 38)) was 25% and the “PAPRH-R % visual injury Obs” value ([8]; Fluroxypyr 100 g/ha (Table 38)) was 25%. It also gave a pest or weed control ([8]; Papaver rhoeas, post-emergence, PAPRH-R, Fluroxypyr 200 g/ha, read-out: % visual injury Obs) of 10%, a pest or weed control ([9]; Veronica persica, post-emergence, VERVE, Fluroxypyr 200 g/ha, read-out: % visual injury Obs) of 60% and a pest or weed control at 200 g/ha ([10]; Lamium purpureum, post-emergence, read-out: % visual injury Obs) of 65%. The pest or weed control ([11]; Papaver rhoeas, post-emergence, Fluroxypyr 200 g/ha, read-out: % visual injury Obs) was 0%, the pest or weed control ([12]; Stellaria media, post-emergence, Fluroxypyr 200 g/ha, read-out: % visual injury Obs) was 95% and the pest or weed control ([13]; Mutarda arvensis, post-emergence, Fluroxypyr 200 g/ha, read-out: % visual injury Obs) was 90%. For the same molecule, the plant injury ([14]; Brassica napus, post-emergence, Fluroxypyr 200 g/ha, read-out: % visual injury Obs) was 30%, the “MATMT % visual injury Obs” value ([15]; Fluroxypyr 70 g/ha (Table 38)) was 10% and the “MATMT % visual injury Obs” value ([15]; Fluroxypyr 100 g/ha (Table 38)) was 10%. For the same molecule, the pest or weed control ([15]; Matricaria discoidea, post-emergence, MATMT, Fluroxypyr 200 g/ha, read-out: % visual injury Obs) was 0%, the pest or weed control ([16]; Capsella bursa-pastoris, post-emergence, Fluroxypyr 200 g/ha, read-out: % visual injury Obs) was 10% and the pest or weed control ([17]; Viola arvensis, post-emergence, Fluroxypyr 200 g/ha, read-out: % visual injury Obs) was 10%. It also gave a pest or weed control ([18]; Centaurea cyanus, post-emergence, Fluroxypyr 200 g/ha, read-out: % visual injury Obs) of 100%, a pest or weed control ([19]; Salsola kali, post-emergence, Fluroxypyr 200 g/ha, read-out: % visual injury Obs) of 60% and a pest or weed control at 200 g/ha ([20]; Viola tricolor, post-emergence, read-out: % visual injury Obs) of 65%.
